{
  "source": "patent US20140128409A1",
  "about": "“MEDICAMENTS FOR THE TREATMENT OR PREVENTION OF FIBROTIC DISEASES” (BOEHRINGER INGELHEIM INTERNATIONAL GMBH, priority 2004, published 2014)",
  "assay_type_in_all_cases": "in vivo, rat",
  "key": {"[1]": {"system": "bleomycin-induced pulmonary fibrosis", "assay": "Lung morphology following bleomycin-induced pulmonary fibrosis (histology, Masson's Trichrome collagen staining)", "conditions": "male Wistar rats, bleomycin 10 U/kg intratracheally; 50 mg/kg daily orally, days 1-21; histology 21 days after instillation; FIG. 1C", "procedure": "(A) Effect of a representative compound on lung morphology following bleomycin-induced pulmonary fibrosis. All experiments were performed in accordance with German guidelines for animal welfare, performed by persons certified to work with animals and approved by the responsible authorities. Male Wistar rats were intratracheally injected with Bleomycin sulfate (10 U/kg body weight in 300 μl saline) or saline alone (saline control) using a catheter (0.5 mm internal diameter, 1.0 mm external diameter) through the nasal passage, following exposure to the anaesthetic Isofluorane for 5 minutes. The following day, the rats were orally treated with Example A (compound (134)) or saline suspended in 1 ml 0.1% Natrosol. Control rats were administered 1 ml 0.1% Natrosol (vehicle control). [table] 21 days following bleomycin instillation, the rats were killed with a lethal intraperitoneal injection of Narcoren™ (Pentobarbital Sodium, Rhone Merieux). The lungs were then removed, blotted dry and half was snap frozen in liquid nitrogen and stored at −80° C. The other half was fixed in 4% formalin for subsequent paraffin embedding and histology. The lung tissues fixed in 4% formalin were embedded into paraffin and 5 μm sections were cut using a microtome (Leica SM200R) and placed on poly-L-lysine coated slides. […] Collagen deposition was assessed using Masson's Trichrome staining."}, "[2]": {"system": "procollagen I gene expression", "assay": "Expression of fibrotic marker gene procollagen I in lung following bleomycin-induced pulmonary fibrosis (real time PCR)", "conditions": "bleomycin-treated rats, 50 mg/kg daily, day 21, versus bleomycin + vehicle; FIG. 2", "procedure": "(§1) All experiments were performed in accordance with German guidelines for animal welfare, performed by persons certified to work with animals and approved by the responsible authorities. Male Wistar rats were intratracheally injected with Bleomycin sulfate (10 U/kg body weight in 300 μl saline) or saline alone (saline control) using a catheter (0.5 mm internal diameter, 1.0 mm external diameter) through the nasal passage, following exposure to the anaesthetic Isofluorane for 5 minutes. The following day, the rats were orally treated with Example A (compound (134)) or saline suspended in 1 ml 0.1% Natrosol. Control rats were administered 1 ml 0.1% Natrosol (vehicle control).\n(§2) 21 days following bleomycin instillation, the rats were killed with a lethal intraperitoneal injection of Narcoren™ (Pentobarbital Sodium, Rhone Merieux). The lungs were then removed, blotted dry and half was snap frozen in liquid nitrogen and stored at −80° C. The other half was fixed in 4% formalin for subsequent paraffin embedding and histology.\n(§3) (B) Effect of a representative compound on expression of fibrotic marker genes following bleomycin-induced pulmonary fibrosis.\n(§4) One part of the frozen lung tissue dedicated to investigation of gene expression was cut into small pieces using a sterile scalpel blade. […] The concentration of each sample was then measured using a spectrophotometer. […]"}, "[3]": {"system": "fibronectin gene expression", "assay": "Expression of fibrotic marker gene fibronectin in lung following bleomycin-induced pulmonary fibrosis (real time PCR)", "conditions": "bleomycin-treated rats, 50 mg/kg daily, day 21, versus bleomycin + vehicle; FIG. 3", "procedure": "as §1, §2, §3, §4"}},
  "data": [
    {"molecule": "CN(C)Cc1ccc(N/C(=C2\\C(=O)Nc3cc(F)ccc32)c2ccc(CCC(=O)O)cc2)cc1", "note": "[Example A, 3-Z-[1-(4-dimethylaminomethylanilino)-1-(4-(2-carboxyethyl)phenyl)methylene]-6-fluoro-2-indolinone]", "values": [
      {"measurement": "fibroblast infiltration or extracellular matrix deposition in lung", "setting": "[1]", "value": "little or no fibroblast infiltration or extracellular matrix deposition has occurred"},
      {"measurement": "lung fibrosis (lung morphology, collagen deposition staining)", "setting": "[1]", "value": "consistent, nearly complete reversal of lung fibrosis"},
      {"measurement": "procollagen I gene expression in lung (normalized to 18S)", "setting": "[2]", "value": "significant (p≦0.0001) inhibition"},
      {"measurement": "fibronectin gene expression in lung (normalized to 18S)", "setting": "[3]", "value": "significant (p≦0.0001) inhibition"}
    ]}
  ]
}
